Patent US6806230B1, “Pyrimidine derivatives and herbicides containing them” (Kumiai Chemical Industry Co., Ltd., priority 1999, dated 2004)

Key:
Type in all cases: in vivo
barnyard grass (Eo) [1] = test: Test Example 1: herbicidal effects by flooded paddy field treatment; design: herbicidal effects, Eo (barnyard grass):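 0-5 growth inhibition grade; 5 = over 90%; 4 = 70-90%; 3 = 50-70%; 2 = 30-50%; 1 = 10-30%; 0 = under 10%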; conditions: for herbicidal effects, Eo (barnyard grass): dose 100 g active ingredient per 10 ares, examined on the 21st day after treatment, standards of Table 44; for Herbicidal effect index, Eo: dose 100 gai/10a, examined on 21st day after treatment, index 0-5 per Table 44;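 as to Herbicidal effect index, Eo: 0-5 growth inhibition grade; 5 = over 90%; 4 = 70-90%; 3 = 50-70%; 2 = 30-50%; 1 = 10-30%; 0 = under 10%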
Method in brief: (§1)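 Herbicidal effect is a graded score assigned 21 days after treatment. Application was one day after sowing into flooded (3 cm) puddled paddy soil, with diluted wettable powder dropped onto the water at 100 g active ingredient per 10 ares. Plants were kept in a greenhouse.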

monochoria (Mo) [2] = test: as above; design: herbicidal effects, Mo (monochoria):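 0-5 growth inhibition grade; 5 = over 90%; 4 = 70-90%; 3 = 50-70%; 2 = 30-50%; 1 = 10-30%; 0 = under 10%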; conditions: for herbicidal effects, Mo (monochoria): dose 100 g active ingredient per 10 ares, examined on the 21st day after treatment, standards of Table 44; for Herbicidal effect index, Mo: dose 100 gai/10a, examined on 21st day after treatment, index 0-5 per Table 44
Method in brief: as §1

barnyard grass (Ec) [3] = test: Test Example 2: herbicidal effects by upland soil treatment; design: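 0-5 growth inhibition grade; 5 = over 90%; 4 = 70-90%; 3 = 50-70%; 2 = 30-50%; 1 = 10-30%; 0 = under 10%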; conditions: dose 100 g active ingredient per 10 ares, examined on the 21st day after treatment, standards of Table 44
Method in brief: (§2)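 Pre-emergence test: barnyard grass and green foxtail sown in upland soil, then soil surface sprayed with wettable-powder formulation at 100 g active ingredient per 10 ares (100 l per 10 ares). Grown in greenhouse; herbicidal effect scored on a rating scale 21 days after treatment.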

green foxtail (Se) = test: as above; conditions: dose 100 g active ingredient per 10 ares, examined on the 21st day after treatment, standards of Table 44;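 also: 0-5 growth inhibition grade; 5 = over 90%; 4 = 70-90%; 3 = 50-70%; 2 = 30-50%; 1 = 10-30%; 0 = under 10%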
Method in brief: as §2

barnyard grass (Ec) [4] = test: Test Example 3: herbicidal effects by foliage treatment in upland field; design: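 0-5 growth inhibition grade; 5 = over 90%; 4 = 70-90%; 3 = 50-70%; 2 = 30-50%; 1 = 10-30%; 0 = under 10%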; conditions: dose 100 g active ingredient per 10 ares, examined on the 14th day after treatment
Method in brief: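 Barnyard grass and green foxtail were grown in upland soil for 2 weeks in a greenhouse. A water-diluted wettable powder was sprayed over the foliage at 100 l per 10 ares, giving 100 g active ingredient per 10 ares. Herbicidal effect was scored on day 14 after treatment.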

barnyard grass (Eo) [5] = test: Test Example 4: selectivity for a crop plant by flooded paddy field treatment; design: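 0-5 growth inhibition grade; 5 = over 90%; 4 = 70-90%; 3 = 50-70%; 2 = 30-50%; 1 = 10-30%; 0 = under 10%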; conditions: barnyard grass, dose 25 gai/10a, 21st day after treatment, index per Table 44
Method in brief: (§3)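 Scores reflect visual herbicidal effect, graded on a standard scale 21 days after water-surface treatment. The product, a wettable powder diluted with water, went on dropwise at 25 g a.i. per 10 ares one day after flooding to 3 cm. Weeds grew from sown seed and rice was transplanted at second-leaf stage.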

monochoria (Mo) [6] = test: as above; design: scale not given here; conditions: monochoria, dose 25 gai/10a, 21st day after treatment, index per Table 44
Method in brief: as §3

rice (Or) = test: as above; design: scale not given here; conditions: rice transplanted at second leaf stage, dose 25 gai/10a, 21st day after treatment, index per Table 44
Method in brief: as §3
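For Herbicidal effect index, Mo in this document: 0-5 growth inhibition grade; 5 = over 90%; 4 = 70-90%; 3 = 50-70%; 2 = 30-50%; 1 = 10-30%; 0 = under 10%.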

Compound: COc1ccc(C(C)C(=O)N(C)C(c2cncnc2C(F)(F)F)C(C)C)cc1 (mixture of isomers) [1-192]
- herbicidal effects, Eo (barnyard grass) (barnyard grass (Eo) [1]): 5
- herbicidal effects, Mo (monochoria) (monochoria (Mo) [2]): 5
- herbicidal effects, Ec (barnyard grass) (barnyard grass (Ec) [3]): 5
- herbicidal effects, Se (green foxtail) (green foxtail (Se)): 5
- Ec (herbicidal effects, index) (barnyard grass (Ec) [4]): 4

Compound: CC(C(=O)N(C)C(c1cncnc1C(F)(F)F)C(C)C)c1ccccc1 (mixture of isomers) [1-195]
- herbicidal effects, Eo (barnyard grass) (barnyard grass (Eo) [1]): 5
- herbicidal effects, Mo (monochoria) (monochoria (Mo) [2]): 5
- herbicidal effects, Ec (barnyard grass) (barnyard grass (Ec) [3]): 5
- herbicidal effects, Se (green foxtail) (green foxtail (Se)): 5
- Ec (herbicidal effects, index) (barnyard grass (Ec) [4]): 5

Compound: CC(C(=O)N(C)C(c1cncnc1C(F)(F)F)C(C)C)c1ccc(F)cc1 (mixture of isomers) [1-198]
- herbicidal effects, Eo (barnyard grass) (barnyard grass (Eo) [1]): 5
- herbicidal effects, Mo (monochoria) (monochoria (Mo) [2]): 5
- herbicidal effects, Ec (barnyard grass) (barnyard grass (Ec) [3]): 5
- herbicidal effects, Se (green foxtail) (green foxtail (Se)): 5
- Ec (herbicidal effects, index) (barnyard grass (Ec) [4]): 4

Compound: CCC(C)C(c1cncnc1C(F)(F)F)N(C)C(=O)Cc1ccccc1 (mixture of isomers) [Compound 1-57]
- Herbicidal effect index, Eo (barnyard grass (Eo) [1]): 5
- Herbicidal effect index, Mo (monochoria (Mo) [2]): 5
- herbicidal effects, Ec (barnyard grass) (barnyard grass (Ec) [3]): 5
- herbicidal effects, Se (green foxtail) (green foxtail (Se)): 5
- Ec (herbicidal effects, index) (barnyard grass (Ec) [4]): 5

Compound: CN(C(=O)Cc1ccccc1)C(c1ccccc1)c1cncnc1C(F)(F)F (racemic) [1-186]
- herbicidal effects, Eo (barnyard grass) (barnyard grass (Eo) [1]): 5
- herbicidal effects, Mo (monochoria) (monochoria (Mo) [2]): 5
- herbicidal effects, Ec (barnyard grass) (barnyard grass (Ec) [3]): 5
- herbicidal effects, Se (green foxtail) (green foxtail (Se)): 5
- Ec (herbicidal effects, index) (barnyard grass (Ec) [4]): 5

Compound: C#CCN(C(=O)Cc1ccccc1)C(c1cncnc1C(F)(F)F)C(C)C (racemic) [1-193]
- herbicidal effects, Eo (barnyard grass) (barnyard grass (Eo) [1]): 5
- herbicidal effects, Mo (monochoria) (monochoria (Mo) [2]): 5
- herbicidal effects, Ec (barnyard grass) (barnyard grass (Ec) [3]): 5
- herbicidal effects, Se (green foxtail) (green foxtail (Se)): 5
- Ec (herbicidal effects, index) (barnyard grass (Ec) [4]): 5

Compound: C#CCN(C(=O)Cc1ccc(Cl)cc1)C(c1cncnc1C(F)(F)F)C(C)C (racemic) [1-194]
- herbicidal effects, Eo (barnyard grass) (barnyard grass (Eo) [1]): 5
- herbicidal effects, Mo (monochoria) (monochoria (Mo) [2]): 5
- herbicidal effects, Ec (barnyard grass) (barnyard grass (Ec) [3]): 5
- herbicidal effects, Se (green foxtail) (green foxtail (Se)): 5
- Ec (herbicidal effects, index) (barnyard grass (Ec) [4]): 5

Compound: CN(C(=O)Cc1ccccc1)C(c1cncnc1C(F)(F)F)C(C)(C)C (racemic) [1-196]
- herbicidal effects, Eo (barnyard grass) (barnyard grass (Eo) [1]): 5
- herbicidal effects, Mo (monochoria) (monochoria (Mo) [2]): 5
- herbicidal effects, Ec (barnyard grass) (barnyard grass (Ec) [3]): 5
- herbicidal effects, Se (green foxtail) (green foxtail (Se)): 5
- Ec (herbicidal effects, index) (barnyard grass (Ec) [4]): 5

Compound: CC(C)c1ncncc1C(c1ccccc1)N(C)C(=O)Cc1ccc(F)cc1 (racemic) [1-214]
- herbicidal effects, Eo (barnyard grass) (barnyard grass (Eo) [1]): 5
- herbicidal effects, Mo (monochoria) (monochoria (Mo) [2]): 5
- herbicidal effects, Ec (barnyard grass) (barnyard grass (Ec) [3]): 5
- herbicidal effects, Se (green foxtail) (green foxtail (Se)): 5
- Ec (herbicidal effects, index) (barnyard grass (Ec) [4]): 4

Compound: COc1ccc(CC(=O)N(C)C(c2cncnc2C(F)(F)F)C(C)C)cc1 (racemic) [Compound 1-9]
- Herbicidal effect index, Eo (barnyard grass (Eo) [1]): 5
- Herbicidal effect index, Mo (monochoria (Mo) [2]): 5
- herbicidal effects, Ec (barnyard grass) (barnyard grass (Ec) [3]): 5
- herbicidal effects, Se (green foxtail) (green foxtail (Se)): 5
- Ec (herbicidal effects, index) (barnyard grass (Ec) [4]): 5

Compound: CC(C)C(c1cncnc1C(F)(F)F)N(C)C(=O)Sc1ccccc1 (racemic) [Compound 1-10]
- Herbicidal effect index, Eo (barnyard grass (Eo) [1]): 5
- Herbicidal effect index, Mo (monochoria (Mo) [2]): 5
- herbicidal effects, Ec (barnyard grass) (barnyard grass (Ec) [3]): 4
- herbicidal effects, Se (green foxtail) (green foxtail (Se)): 4
- Ec (herbicidal effects, index) (barnyard grass (Ec) [4]): 4

Compound: CC(C)C(c1cncnc1C(F)(F)F)N(C)C(=O)Cc1ccc(F)cc1 (racemic) [Compound 1-12]
- Herbicidal effect index, Eo (barnyard grass (Eo) [1]): 5
- Herbicidal effect index, Mo (monochoria (Mo) [2]): 5
- herbicidal effects, Ec (barnyard grass) (barnyard grass (Ec) [3]): 5
- herbicidal effects, Se (green foxtail) (green foxtail (Se)): 5
- Ec (herbicidal effects, index) (barnyard grass (Ec) [4]): 5

Compound: CC(C)C(c1cncnc1C(F)(F)F)N(C)C(=O)Cc1ccc(C(F)(F)F)cc1 (racemic) [Compound 1-24]
- Herbicidal effect index, Eo (barnyard grass (Eo) [1]): 5
- Herbicidal effect index, Mo (monochoria (Mo) [2]): 5
- herbicidal effects, Ec (barnyard grass) (barnyard grass (Ec) [3]): 5
- herbicidal effects, Se (green foxtail) (green foxtail (Se)): 5
- Ec (herbicidal effects, index) (barnyard grass (Ec) [4]): 4

Compound: CCN(C(=O)Cc1ccc(F)cc1)C(c1cncnc1C(F)(F)F)C(C)C (racemic) [Compound 1-27]
- Herbicidal effect index, Eo (barnyard grass (Eo) [1]): 5
- Herbicidal effect index, Mo (monochoria (Mo) [2]): 5
- herbicidal effects, Ec (barnyard grass) (barnyard grass (Ec) [3]): 5
- herbicidal effects, Se (green foxtail) (green foxtail (Se)): 5
- Ec (herbicidal effects, index) (barnyard grass (Ec) [4]): 4

Compound: CC(C)C(c1cncnc1C(F)(F)F)N(C)C(=O)Cc1cccc(F)c1 (racemic) [Compound 1-66]
- Herbicidal effect index, Eo (barnyard grass (Eo) [1]): 5
- Herbicidal effect index, Mo (monochoria (Mo) [2]): 5
- herbicidal effects, Ec (barnyard grass) (barnyard grass (Ec) [3]): 5
- herbicidal effects, Se (green foxtail) (green foxtail (Se)): 5
- Ec (herbicidal effects, index) (barnyard grass (Ec) [4]): 5

Compound: CN(C(=O)Cc1ccc(F)cc1)C(c1cncnc1C(F)(F)Cl)C1CC1 (racemic) [Compound 1-92]
- herbicidal effects, Ec (barnyard grass) (barnyard grass (Ec) [3]): 5
- herbicidal effects, Se (green foxtail) (green foxtail (Se)): 5
- Ec (herbicidal effects, index) (barnyard grass (Ec) [4]): 5

Compound: Cc1ccc(CC(=O)N(C)C(c2cncnc2C(F)F)C(C)C)cc1 (racemic) [Compound 1-166]
- herbicidal effects, Eo (barnyard grass) (barnyard grass (Eo) [1]): 5
- herbicidal effects, Mo (monochoria) (monochoria (Mo) [2]): 5
- Eo (herbicidal effect index) (barnyard grass (Eo) [5]): 5
- Mo (herbicidal effect index) (monochoria (Mo) [6]): 5
- Or (herbicidal effect index on crop) (rice (Or)): 1
- herbicidal effects, Ec (barnyard grass) (barnyard grass (Ec) [3]): 5
- herbicidal effects, Se (green foxtail) (green foxtail (Se)): 5

Compound: CC(C)C(c1cncnc1C(F)(F)F)N(C)C(=O)Cc1cc(F)cc(F)c1 (racemic) [Compound 1-167]
- herbicidal effects, Eo (barnyard grass) (barnyard grass (Eo) [1]): 5
- herbicidal effects, Mo (monochoria) (monochoria (Mo) [2]): 5
- Eo (herbicidal effect index) (barnyard grass (Eo) [5]): 5
- Mo (herbicidal effect index) (monochoria (Mo) [6]): 5
- Or (herbicidal effect index on crop) (rice (Or)): 1
- herbicidal effects, Ec (barnyard grass) (barnyard grass (Ec) [3]): 5
- herbicidal effects, Se (green foxtail) (green foxtail (Se)): 5

Compound: CCN(C(=O)Cc1ccccc1)C(c1cncnc1C(F)F)C(C)C (racemic) [Compound 1-168]
- herbicidal effects, Eo (barnyard grass) (barnyard grass (Eo) [1]): 5
- herbicidal effects, Mo (monochoria) (monochoria (Mo) [2]): 5
- Eo (herbicidal effect index) (barnyard grass (Eo) [5]): 5
- Mo (herbicidal effect index) (monochoria (Mo) [6]): 5
- Or (herbicidal effect index on crop) (rice (Or)): 1
- herbicidal effects, Ec (barnyard grass) (barnyard grass (Ec) [3]): 5
- herbicidal effects, Se (green foxtail) (green foxtail (Se)): 5

Compound: CCN(C(=O)Cc1ccc(F)cc1)C(c1cncnc1C(F)F)C(C)C (racemic) [Compound 1-169]
- herbicidal effects, Eo (barnyard grass) (barnyard grass (Eo) [1]): 5
- herbicidal effects, Mo (monochoria) (monochoria (Mo) [2]): 5
- Eo (herbicidal effect index) (barnyard grass (Eo) [5]): 5
- Mo (herbicidal effect index) (monochoria (Mo) [6]): 5
- Or (herbicidal effect index on crop) (rice (Or)): 1
- herbicidal effects, Ec (barnyard grass) (barnyard grass (Ec) [3]): 5
- herbicidal effects, Se (green foxtail) (green foxtail (Se)): 5

Compound: CCN(C(=O)Cc1ccc(Cl)cc1)C(c1cncnc1C(F)F)C(C)C (racemic) [Compound 1-170]
- herbicidal effects, Eo (barnyard grass) (barnyard grass (Eo) [1]): 5
- herbicidal effects, Mo (monochoria) (monochoria (Mo) [2]): 5
- Eo (herbicidal effect index) (barnyard grass (Eo) [5]): 5
- Mo (herbicidal effect index) (monochoria (Mo) [6]): 5
- Or (herbicidal effect index on crop) (rice (Or)): 1
- herbicidal effects, Ec (barnyard grass) (barnyard grass (Ec) [3]): 5
- herbicidal effects, Se (green foxtail) (green foxtail (Se)): 5

Compound: CCN(C(=O)Cc1ccc(C)cc1)C(c1cncnc1C(F)F)C(C)C (racemic) [Compound 1-171]
- herbicidal effects, Eo (barnyard grass) (barnyard grass (Eo) [1]): 5
- herbicidal effects, Mo (monochoria) (monochoria (Mo) [2]): 5
- Eo (herbicidal effect index) (barnyard grass (Eo) [5]): 5
- Mo (herbicidal effect index) (monochoria (Mo) [6]): 5
- Or (herbicidal effect index on crop) (rice (Or)): 1
- herbicidal effects, Ec (barnyard grass) (barnyard grass (Ec) [3]): 5
- herbicidal effects, Se (green foxtail) (green foxtail (Se)): 4
